Measurements from publication PMC6680510, “Benzotriazine Di-Oxide Prodrugs for Exploiting Hypoxia and Low Extracellular pH in Tumors” (Molecules, 2019).
Where two headings read alike, the source gives them in different places.

Columns and labels:
SiHa cells = assay: IC50 assay (inhibition of proliferation, 4 h exposure, SRB); details: SiHa; for IC50: Homo sapiens, 4 h
Description: Cells were seeded in 96-well plates (SiHa or FaDu 1500 cells/well, UT-SCC-74B 800 cells/well) in 100 μL. After incubation for 2 h, the drugs were added in 50 μL of the same titrated medium at 3× the final concentration to duplicate the wells. After a further 4 h the plates were checked for drug precipitation using a phase contrast microscope, then drugs were removed by aspirating and washing with the standard (pH 7.4) medium, then aspirating again and adding 150 μL of the medium. Cultures were then grown for 5 days before staining with sulphorhodamine B and measuring absorbance, with the estimation of IC50 values using 4-parameter logistic regression, as previously carried out.
The medium and plasticware was equilibrated in the chamber for 3 days prior to use. In the anoxia experiments, FaDu cells were plated in poly-L-lysine coated plates (Corning Cat # 356461) to improve attachment.
Cells were subsequently grown under standard cell culture conditions (oxia, pHe 7.4) for 5 days before staining with sulforhodamine B (SRB). […] (B) SN30000 (2). (C) BTO acid 4a. Values are means and errors are ranges for duplicate cultures in a single experiment. Fitted curves are 4-parameter logistic regressions. PCR = pH cytotoxicity ratio. ACR = anoxia cytotoxicity ratio. TMR = tumor microenvironment ratio.

[1] = Solubility in AlphaMEM + 5% FBS, pH 7.4; details: culture medium (AlphaMEM + 5% FBS), pH 7.4, plasma or biological fluid
FaDu cells = assay: IC50 assay (inhibition of proliferation, 4 h exposure, SRB); assay type: cell-based; details: for IC50: Homo sapiens, 4 h
[2] = read-out: Anoxic IC50, SiHa, pHe 6.5, 4 h, anoxic
[3] = read-out: Anoxic IC50, SiHa, pHe 7.4, 4 h, anoxic
[4] = read-out: Oxic IC50, SiHa, pHe 6.5, 4 h, oxic
[5] = read-out: Oxic IC50, SiHa, pHe 7.4, 4 h, oxic
[6] = pHe 6.5, 4 h, anoxic, read-out: Anoxic IC50
[7] = pHe 6.5, 4 h, oxic, read-out: Oxic IC50
[8] = pHe 7.4, 4 h, anoxic, read-out: Anoxic IC50
[9] = pHe 7.4, 4 h, oxic, read-out: Oxic IC50

Row | Structure (SMILES) | IC50 (SiHa cells; [2]) | IC50 (SiHa cells; [3]) | IC50 (SiHa cells; [4]) | IC50 (SiHa cells; [5]) | TMR (overall TME ratio = oxic IC50 pHe 7.4/anoxic IC50 pHe 6.5) (SiHa cells) | PCR Anoxic (IC50 at pHe 7.4/IC50 at pHe 6.5) (SiHa cells) | PCR oxic (IC50 at pHe 7.4/IC50 at pHe 6.5) (SiHa cells) | ACR (anoxic cytotoxicity ratio = oxic IC50/anoxic IC50) (SiHa cells; pHe 6.5) | ACR (anoxic cytotoxicity ratio = oxic IC50/anoxic IC50) (SiHa cells; pHe 7.4) | solubility ([1]; thermodynamic from solid) | TMR (oxic IC50 pHe 7.4/anoxic IC50 pHe 6.5) (FaDu cells) | IC50 (FaDu cells; [6]) | IC50 (FaDu cells; [7]) | IC50 (FaDu cells; [8]) | IC50 (FaDu cells; [9]) | PCR Anoxic (IC50 at pHe 7.4/IC50 at pHe 6.5) (FaDu cells; anoxic) | PCR oxic (IC50 at pHe 7.4/IC50 at pHe 6.5) (FaDu cells; oxic) | ACR (oxic IC50/anoxic IC50) (FaDu cells; pHe 6.5) | ACR (oxic IC50/anoxic IC50) (FaDu cells; pHe 7.4) | solubility ([1]; kinetic from dmso stock) | further results
1 | CCOC(=O)CNc1n[n+]([O-])c2ccccc2[n+]1[O-] [Compound 8b, Ethyl [(1,4-Dioxido-1,2,4-benzotriazin-3-yl)amino]acetate] | 2.5 ± 0.87 µM | 1.2 ± 0.35 µM | 21.6 ± 5.7 µM | 35.3 ± 3.1 µM | 14.1 ± 5.1 | 0.48 ± 0.22 | 1.63 ± 0.45 | 8.6 ± 3.8 | 29.4 ± 8.9 | 8600 µM | 11.2 ± 2.9 | 8.55 ± 1.92 µM | 76.1 ± 17.9 µM | 5.25 ± 1.18 µM | 102 ± 9 µM | 0.61 ± 0.02 | 1.34 ± 0.33 | 8.89 ± 2.89 | 19.3 ± 4.7 | – | –
2 | COC(=O)CCNc1n[n+]([O-])c2cc3c(cc2[n+]1[O-])CCC3 [Compound 10b, 3-((3-Methoxy-3-oxopropyl)amino)-7,8-dihydro-6H-indeno[5,6-e][1,2,4]triazine 1,4-Dioxide] | 21 ± 4.2 µM | 20.4 ± 4.8 µM | 208 ± 26 µM | 249 ± 50 µM | 11.9 ± 3.4 | 0.97 ± 0.30 | 1.20 ± 0.28 | 9.90 ±2.34 | 12.2 ± 3.8 | 350 µM | 7.31 ± 1.08 | 40 ± 5.8 µM | 262 ± 29 µM | 43.7 ± 12.1 µM | 292 ± 8 µM | 1.09 ± 0.34 | 1.11 ± 0.13 | 6.56 ± 1.19 | 6.69 ± 1.86 | – | –
3 | CCOC(=O)CCCNc1n[n+]([O-])c2ccccc2[n+]1[O-] [Compound 11b, 3-((4-Ethoxy-4-oxobutyl)amino)benzo[e][1,2,4]triazine 1,4-Dioxide] | 4.36 ± 0.56 µM | 3.55 ± 0.7 µM | 13.2 ± 0.9 µM | 14.5 ± 0.6 µM | 3.32 ± 0.45 | 0.81 ± 0.19 | 1.10 ± 0.09 | 3.04 ±0.44 | 4.08 ±0.82 | – | 10.1 ± 3.0 | 36.3 ± 4.8 µM | 274 ± 210 µM | 29 ± 2 µM | 368 ± 98 µM | 0.80 ± 0.12 | 1.34 ± 1.09 | 7.55 ± 5.87 | 12.7 ± 3.5 | 1400 µM | –
4 | Cc1ccc2c(c1)[n+]([O-])nc(NCCCC(=O)O)[n+]2[O-] [Compound 12a, 3-((3-Carboxypropyl)amino)-7-methylbenzo[e][1,2,4]triazine 1,4-Dioxide] | 234 ± 17 µM | > 300 µM | > 300 µM | > 300 µM | >1 | >1 | – | >1 | – | – | >1 | 271 ± 53 µM | > 300 µM | > 300 µM | > 300 µM | >1 | – | >1 | – | > 890 µM | –
5 | CCOC(=O)CCCNc1n[n+]([O-])c2cc(C)ccc2[n+]1[O-] [Compound 12b, 3-((4-Ethoxy-4-oxobutyl)amino)-7-methylbenzo[e][1,2,4]triazine 1,4-Dioxide] | – | – | – | – | – | – | – | – | – | – | – | – | – | – | – | – | – | – | – | 160 µM | melting point: 191 to 192 °C
